pIC50: −log10 of the molar value.
What follows are compounds tested against BTK (Homo sapiens (Human), UniProt Q06187) (assay: Btk kinase assay (HTRF)). Conditions: not given.
Assay type: biochemical
Procedure: Btk Kinase Assay and Other Kinases Assay Btk kinase activity was determined using a homogenous time resolved fluorescence (HTRF) methodology. Measurements were performed in a reaction volume of 15 μL using 384-well assay plates. Kinase enzyme, inhibitor, ATP and 1 μM peptide substrate were incubated in a reaction buffer compose of Hepes 50 mM (pH7.0), NaN3 0.02%, BSA 0.01%, Orthocanadate 0.1 mM. […] For each compound, enzyme activity as measured at various concentrations of compound, Negative control reactions were performed in the absence of inhibitor in two replicates and eight no enzyme controls were used to determine baseline fluorescence levels.

Chain of BTK (Q06187 whole entry, species assumed): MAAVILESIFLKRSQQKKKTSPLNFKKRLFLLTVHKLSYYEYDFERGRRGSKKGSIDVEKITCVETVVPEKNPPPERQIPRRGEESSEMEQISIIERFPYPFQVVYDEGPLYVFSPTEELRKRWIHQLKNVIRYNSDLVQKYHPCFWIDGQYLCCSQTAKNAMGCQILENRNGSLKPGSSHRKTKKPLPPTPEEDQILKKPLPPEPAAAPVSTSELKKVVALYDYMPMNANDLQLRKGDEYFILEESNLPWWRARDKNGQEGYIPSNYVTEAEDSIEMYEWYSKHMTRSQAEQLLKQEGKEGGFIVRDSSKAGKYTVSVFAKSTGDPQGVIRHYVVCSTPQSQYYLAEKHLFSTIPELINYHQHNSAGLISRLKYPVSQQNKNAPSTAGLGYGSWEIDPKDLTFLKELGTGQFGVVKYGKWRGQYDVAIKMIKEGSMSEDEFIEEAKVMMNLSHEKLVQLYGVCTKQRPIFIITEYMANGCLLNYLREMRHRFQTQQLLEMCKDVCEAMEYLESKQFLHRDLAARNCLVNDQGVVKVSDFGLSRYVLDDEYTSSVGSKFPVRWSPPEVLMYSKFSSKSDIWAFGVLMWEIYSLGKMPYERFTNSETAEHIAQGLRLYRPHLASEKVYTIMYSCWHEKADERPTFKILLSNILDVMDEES

Question: `C=CC(=O)N1CCC[C@@H](n2nc(-c3ccc(COc4ccccc4)cc3)c3ccccc32)C1` [Compound 102, (R)-1-(3-(3-(4-(phenoxymethyl)phenyl)-1H-indazol-1-yl)piperidin-1-yl)prop-2-en-1-one] was tested. Which pIC50 did it give?
Answer: 7.00 to 8.00

Same assay, conditions: [ATP]=80 μM, BTK=3.4 nM; read-out: BTK Inhibition

Question: How did the pIC50 turn out when `C=CC(=O)N1CCC[C@@H](n2nc(-c3ccc(Oc4cccc(OC)c4F)cc3)c3cncc(OCCN(C)C)c32)C1` [Compound 93, (R)-1-(3-(7-(2-(dimethylamino)ethoxy)-3-(4-(2-fluoro-3-methoxyphenoxy)phenyl)-1H-pyrazolo[4,3-c]pyridin-1-yl)piperidin-1-yl)prop-2-en-1-one] was run?
Answer: > 8.00

Question: With `C=CC(=O)N1CC[C@@H](n2nc(-c3ccc(Oc4cccc(C)c4C)cc3)c3cnccc32)C1` [Compound 12, (R)-1-(3-(3-(4-(2,3-dimethylphenoxy)phenyl)-1H-pyrazolo[4,3-c]pyridin-1-yl)pyrrolidin-1-yl)prop-2-en-1-one] as the compound, how does the pIC50 read?
Answer: 7.00 to 8.00

Question: How did the pIC50 turn out when `C=CC(=O)N1CCC[C@@H](n2nc(-c3ccc(Oc4cccc(F)c4OC)cc3)c3cnccc32)C1` [Compound 50, (R)-1-(3-(3-(4-(3-fluoro-2-methoxyphenoxy)phenyl)-1H-pyrazolo[4,3-c]pyridin-1-yl)piperidin-1-yl)prop-2-en-1-one] was run?
Answer: 7.00 to 8.00

Question: How did the pIC50 turn out when `C=CC(=O)N1CCC[C@@H](n2nc(-c3ccc(Oc4cccc(OC(C)C)c4)cc3)c3cnccc32)C1` [Compound 23, (R)-1-(3-(3-(4-(3-isopropoxyphenoxy)phenyl)-1H-pyrazolo[4,3-c]pyridin-1-yl)piperidin-1-yl)prop-2-en-1-one] was run?
Answer: 7.00 to 8.00

Question: `CC#CC(=O)N1CCC[C@@H](n2nc(-c3ccc(Oc4cccc(OC)c4Cl)cc3)c3cnccc32)C1` [Compound 25, (R)-1-(3-(3-(4-(2-chloro-3-methoxyphenoxy)phenyl)-1H-pyrazolo[4,3-c]pyridin-1-yl)piperidin-1-yl)but-2-yn-1-one] was tested. Which pIC50 did it give?
Answer: 6.00 to 7.00

Question: How did the pIC50 turn out when `COc1cccc(Oc2ccc(-c3nn(CC4CCCN4C(=O)/C(C#N)=C/C(C)(C)C)c4c(OC)cncc34)cc2)c1F` (stereo not shown) [Compound 92, (E)-2-(2-((3-(4-(2-fluoro-3-methoxyphenoxy)phenyl)-7-methoxy-1H-pyrazolo[4,3-c]pyridin-1-yl)methyl)pyrrolidine-1-carbonyl)-4,4-dimethylpent-2-enenitrile] was run?
Answer: 7.00 to 8.00

Question: `C=CC(=O)N1CCC(Cn2nc(-c3ccc(Oc4ccccc4)cc3)c3cnccc32)C1` (stereo not shown) [Compound 21, 1-(3-((3-(4-phenoxyphenyl)-1H-pyrazolo[4,3-c]pyridin-1-yl)methyl)pyrrolidin-1-yl)prop-2-en-1-one] was tested. Which pIC50 did it give?
Answer: 7.00 to 8.00

Question: With `C=CC(=O)N1CCc2c(c(-c3ccc(Oc4cccc(OC)c4F)cc3)nn2[C@@H]2CCN(C(=O)C=C)C2)C1` [Compound 46, (R)-1-(3-(5-acryloyl-3-(4-(2-fluoro-3-methoxyphenoxy)phenyl)-4,5,6,7-tetrahydro-1H-pyrazolo[4,3-c]pyridin-1-yl)pyrrolidin-1-yl)prop-2-en-1-one] as the compound, how does the pIC50 read?
Answer: < 5.00

Question: How did the pIC50 turn out when `C=CC(=O)N1CCC[C@@H](n2nc3ccncc3c2-c2ccc(Oc3cccc(F)c3Cl)cc2)C1` [Compound 39, (R)-1-(3-(3-(4-(2-chloro-3-fluorophenoxy)phenyl)-2H-pyrazolo[4,3-c]pyridin-2-yl)piperidin-1-yl)prop-2-en-1-one] was run?
Answer: 7.00 to 8.00

Question: `C=CC(=O)N1CC[C@@H](n2nc(-c3ccc(Oc4cccc5c4CCC5)cc3)c3cnccc32)C1` [Compound 31, (R)-1-(3-(3-(4-((2,3-dihydro-1H-inden-4-yl)oxy)phenyl)-1H-pyrazolo[4,3-c]pyridin-1-yl)pyrrolidin-1-yl)prop-2-en-1-one] was tested. Which pIC50 did it give?
Answer: 7.00 to 8.00

Question: How did the pIC50 turn out when `C=CC(=O)N1CC[C@@H](n2nc(-c3ccc(Oc4cccc(F)c4C)cc3)c3cnccc32)C1` [Compound 14, (R)-1-(3-(3-(4-(3-fluoro-2-methylphenoxy)phenyl)-1H-pyrazolo[4,3-c]pyridin-1-yl)pyrrolidin-1-yl)prop-2-en-1-one] was run?
Answer: 7.00 to 8.00

Question: `C=CC(=O)N1CC[C@@H](n2nc(-c3ccc(Oc4cccc(OC)c4C)cc3)c3cnccc32)C1` [Compound 59, (R)-1-(3-(3-(4-(3-methoxy-2-methylphenoxy)phenyl)-1H-pyrazolo[4,3-c]pyridin-1-yl)pyrrolidin-1-yl)prop-2-en-1-one] was tested. Which pIC50 did it give?
Answer: 7.00 to 8.00

Question: How did the pIC50 turn out when `C=CC(=O)N1CCC[C@@H](n2nc(-c3ccc(Oc4cccc5c4OCO5)cc3)c3cnccc32)C1` [Compound 8, (R)-1-(3-(3-(4-(benzo[d][1,3]dioxol-4-yloxy)phenyl)-1H-pyrazolo[4,3-c]pyridin-1-yl)piperidin-1-yl)prop-2-en-1-one] was run?
Answer: 6.00 to 7.00

Question: `C=CC(=O)N1CC[C@@H](n2nc3ccncc3c2-c2ccc(Oc3cccc(F)c3Cl)cc2)C1` [Compound 38, (R)-1-(3-(3-(4-(2-chloro-3-fluorophenoxy)phenyl)-2H-pyrazolo[4,3-c]pyridin-2-yl)pyrrolidin-1-yl)prop-2-en-1-one] was tested. Which pIC50 did it give?
Answer: 7.00 to 8.00

Question: How did the pIC50 turn out when `C=CC(=O)N1CCC[C@H](n2nc(-c3ccc(C(=C)c4ccccc4)cc3)c3cnccc32)C1` [Compound 95, (S)-1-(3-(3-(4-(1-phenylvinyl)phenyl)-1H-pyrazolo [4,3-c]pyridin-1-yl)piperidin-1-yl)prop-2-en-1-one] was run?
Answer: 7.00 to 8.00

Question: `C=CC(=O)N1CC[C@H](n2nc(-c3ccc(Oc4cccc(Cl)c4)cc3)c3cnccc32)C1` [Compound 36, (S)-1-(3-(3-(4-(3-chlorophenoxy)phenyl)-1H-pyrazolo[4,3-c]pyridin-1-yl)pyrrolidin-1-yl)prop-2-en-1-one] was tested. Which pIC50 did it give?
Answer: 7.00 to 8.00

Question: With `C=CC(=O)N1CCC[C@@H](n2nc(-c3ccc(Oc4cccc(Cl)c4C)cc3)c3cnccc32)C1` [Compound 56, (R)-1-(3-(3-(4-(3-chloro-2-methylphenoxy)phenyl)-1H-pyrazolo[4,3-c]pyridin-1-yl)piperidin-1-yl)prop-2-en-1-one] as the compound, how does the pIC50 read?
Answer: 7.00 to 8.00

Question: How did the pIC50 turn out when `C=CC(=O)N1CC[C@H](n2nc(-c3ccc(Oc4cccc(Cl)c4Cl)cc3)c3cnccc32)C1` [Compound 42, (S)-1-(3-(3-(4-(2,3-dichlorophenoxy)phenyl)-1H-pyrazolo[4,3-c]pyridin-1-yl)pyrrolidin-1-yl)prop-2-en-1-one] was run?
Answer: > 8.00

Question: With `C=CC(=O)N1CCC[C@@H](n2nc(-c3ccc(N4CCN(S(C)(=O)=O)CC4)cc3)c3cnccc32)C1` [Compound 115, (R)-1-(3-(3-(4-(4-(methylsulfonyl)piperazin-1-yl)phenyl)-1H-pyrazolo[4,3-c]pyridin-1-yl)piperidin-1-yl)prop-2-en-1-one] as the compound, how does the pIC50 read?
Answer: 6.00 to 7.00

Question: `C=CC(=O)N1CCC[C@@H](n2nc(-c3ccc(C(=O)NCc4cccc(OC)c4)cc3)c3cnccc32)C1` [Compound 104, (R)-4-(1-(1-acryloylpiperidin-3-yl)-1H-pyrazolo[4,3-c]pyridin-3-yl)-N-(3-methoxybenzyl)benzamide] was tested. Which pIC50 did it give?
Answer: 6.00 to 7.00

Question: How did the pIC50 turn out when `C=CC(=O)N1CCC[C@H](n2nc(-c3ccc(Oc4ccccc4)c(Cl)c3)c3cnccc32)C1` [Compound 35, (S)-1-(3-(3-(3-chloro-4-phenoxyphenyl)-1H-pyrazolo[4,3-c]pyridin-1-yl)piperidin-1-yl)prop-2-en-1-one] was run?
Answer: 7.00 to 8.00

Question: How did the pIC50 turn out when `C=CC(=O)N1CCC[C@@H](n2nc(-c3ccc(OC4CCCCC4)cc3)c3cnccc32)C1` [Compound 29, (R)-1-(3-(3-(4-(cyclohexyloxy)phenyl)-1H-pyrazolo[4,3-c]pyridin-1-yl)piperidin-1-yl)prop-2-en-1-one] was run?
Answer: 7.00 to 8.00

Question: `COc1cccc(Oc2ccc(-c3nn([C@@H]4CCCN(C(=O)C(=O)O)C4)c4c(OC)cncc34)cc2)c1F` [Compound 119, (R)-2-(3-(3-(4-(2-fluoro-3-methoxyphenoxy)phenyl)-7-methoxy-1H-pyrazolo[4,3-c]pyridin-1-yl)piperidin-1-yl)-2-oxoacetic acid] was tested. Which pIC50 did it give?
Answer: 7.00 to 8.00

Question: How did the pIC50 turn out when `C=CC(=O)N1CCC[C@@H](n2nc(Nc3ccc(N4CCN(C)CC4)cc3)c3cnccc32)C1` [Compound 114, (R)-1-(3-(3-((4-(4-methylpiperazin-1-yl)phenyl)amino)-1H-pyrazolo[4,3-c]pyridin-1-yl)piperidin-1-yl)prop-2-en-1-one] was run?
Answer: 5.00 to 6.00

Question: `C=CC(=O)N1CCC[C@@H](n2nc(-c3ccc(Oc4cccc(F)c4C)cc3)c3cnccc32)C1` [Compound 16, (R)-1-(3-(3-(4-(3-fluoro-2-methylphenoxy)phenyl)-1H-pyrazolo[4,3-c]pyridin-1-yl)piperidin-1-yl)prop-2-en-1-one] was tested. Which pIC50 did it give?
Answer: 7.00 to 8.00

Question: With `C=CC(=O)N1CCC[C@@H](n2nc(-c3ccc(Oc4cccc(OC)c4F)cc3)c3cncc(F)c32)C1` [Compound 70, (R)-1-(3-(7-fluoro-3-(4-(2-fluoro-3-methoxyphenoxy)phenyl)-1H-pyrazolo[4,3-c]pyridin-1-yl)piperidin-1-yl)prop-2-en-1-one] as the compound, how does the pIC50 read?
Answer: > 8.00

Question: `C=CC(=O)N1CCC[C@@H](n2nc(-c3ccc(Oc4ccccc4)cc3)c3cnccc32)C1` [Compound 33, (R)-1-(3-(3-(4-phenoxyphenyl)-1H-pyrazolo[4,3-c]pyridin-1-yl)piperidin-1-yl)prop-2-en-1-one] was tested. Which pIC50 did it give?
Answer: > 8.00

Question: How did the pIC50 turn out when `C=CC(=O)N1CCC[C@H](n2nc(-c3ccc(Oc4cccc(Cl)c4Cl)cc3)c3cnccc32)C1` [Compound 44, (S)-1-(3-(3-(4-(2,3-dichlorophenoxy)phenyl)-1H-pyrazolo[4,3-c]pyridin-1-yl)piperidin-1-yl)prop-2-en-1-one] was run?
Answer: > 8.00

Question: `COc1cccc(Oc2ccc(-c3nn([C@@H]4CCCN(C(=O)/C(C#N)=C/C(C)(C)C)C4)c4c(OC)cncc34)cc2)c1F` [Compound 90, (R,E)-2-(3-(3-(4-(2-fluoro-3-methoxyphenoxy)phenyl)-7-methoxy-1H-pyrazolo[4,3-c]pyridin-1-yl)piperidine-1-carbonyl)-4,4-dimethylpent-2-enenitrile] was tested. Which pIC50 did it give?
Answer: 7.00 to 8.00

Question: How did the pIC50 turn out when `C=CC(=O)N1CCC[C@@H](n2nc(-c3ccc(Oc4cccc(OC)c4)cc3)c3cnccc32)C1` [Compound 65, (R)-1-(3-(3-(4-(3-methoxyphenoxy)phenyl)-1H-pyrazolo[4,3-c]pyridin-1-yl)piperidin-1-yl)prop-2-en-1-one] was run?
Answer: 7.00 to 8.00
